Several values for one entry are separate records, joined by “and”; a condition that tells them apart may be missing. Equal values may be shown once.
Key:
[1] = test system: SHR; experiment: Antihypertensive effect (MABP by radiotelemetry) of CI-1027, amlodipine and their combination in SHR (Example 2); format: in vivo, rat
Method: The general procedure of Example 1 was followed to evaluate the antihypertensive efficacy of the carboxyalkylether CI-1027 alone and in combination with the calcium channel blocker amlodipine.
Male SHR (15-20 weeks old, Charles River Laboratories) were prepared with indwelling aortic catheters and radiotransmitters for continuous measurement of arterial blood pressure and heart rate. Animals were allowed food and water ad libitum. Before dosing all rats were given a minimum of 7 days for recovery from surgery.
The experiment was carried out over 22 days in 3 groups of SHR. Group I served as a control and received 2 mL/kg/day of vehicle (same as in Example 1) for 22 consecutive days. Group II, used to determined the antihypertensive response to amlodipine monotherapy, was given vehicle for the first 13 consecutive days. Then on Day 14, amlodipine was added at a dose of 0.3 mg/kg/day for 3 consecutive days. The dose was then increased to 1 mg/kg/day for the next 3 days, and on the final 3 days, 3 mg/kg/day was given. To determine the response to CI-1027 monotherapy, Group III received a 13-day treatment with CI-1027 monotherapy at a dose of 30 mg/kg/day. The antihypertensive response to the combination therapy was determined by the addition of amlodipine to ongoing CI-1027 treatment on Day 14.
Drugs were suspended or dissolved in vehicle that contains 96% water, 3% carboxymethocellulose, and 1% tween 88. Compounds were given at 9 AM daily by oral gavage in a volume of 2 mL/kg. The combination of CI-1027 and amlodipine was given as a single gavage in a volume of 2 mL/kg.

[2] = test system: spontaneously hypertensive rats (SHR); experiment: Antihypertensive effect (MABP by radiotelemetry) of CI-1027, quinapril and their combination in SHR (Example 1); format: in vivo, rat
Method: The antihypertensive effects of the carboxyalkylether compound of Formula III (CI-1027), alone and in combination with an antihypertensive agent such as quinapril (CI-906), were evaluated in rats according to the following protocol. Male spontaneously hypertensive rats (SHR, 15-20 weeks old, Charles River Laboratories, Wilmington, Mass.) were prepared with indwelling aortic catheters and radiotransmitters (Data Sciences International, Saint Paul, Minn.). The radiotransmitters provided continuous measurement of aortic blood pressure waveform. From the aortic blood pressure waveform a Ponemah (Gould Instruments Inc, Valley View, Ohio) computer provided mean arterial blood pressure (MABP) and heart rate values continuously as one-minute averages. One-minute data was then summarized at 15-minute intervals using Excel (Microsoft Corporation, Redmond, Wash.) spreadsheets. Animals were allowed food and water ad libitum. To allow for recovery following surgery, rats were not dosed for a minimum of 7 days. Day 0 predose blood pressures were obtained by averaging eight 15-minute MABP measurements made 2 hours before dosing. To obtain the peak response to treatment (Days 0, 12, 16, 19, and 22), the 15-minute MABP measurements in the interval between 2 and 4 hours post-dose were averaged. Test compounds were given in a vehicle that contained 96% water, 3% carbomethocellulose (Sigma Chemical, Saint Louis, Mo.) and 1% tween […] (polyoxyethylenesorbitan monooleate, Sigma Chemical). CI-1027 and quinapril monotherapy were administered at 8:30 AM daily by oral gavage in a volume of 2 mL/kg. The combination of CI-1027 and quinapril was given as a single gavage in a volume of 2 mL/kg. The experiment was carried out over 22 days in 4 groups of animals. Group I served as a control and received 2 mL/kg/day of vehicle for 22 consecutive days. Group II, used to determine the antihypertensive response to quinapril monotherapy, was given vehicle for the first 12 to 13 consecutive days. Then on Day 13 to 14 quinapril was added at a dose of 0.3 mg/kg/day for 3 to 4 consecutive days; the dose was then increased to 1 mg/kg/day for the next 3 days, and on the final 3 days, 3 mg/kg/day was administered. To determine the response to CI-1027 monotherapy, Groups III and IV received 12-day treatment with CI-1027 monotherapy at doses of 30 and 100 mg/kg/day, respectively. To determine the antihypertensive response to the combination therapy quinapril, was added to the ongoing CI-1027 treatment (Day 13-14) using the rising dose protocol described for Group II (quinapril monotherapy). [table]

## CCOC(=O)C1=C(COCCN)NC(C)=C(C(=O)OC)C1c1ccccc1Cl (stereo not drawn) [Amlodipine, amlodipine]
[1]; Amlodipine 0.3 mg/kg/day oral, Day 16, 4-6 h postdose
  Peak MABP: 140 ± 6 mm Hg
[1]; Amlodipine 1 mg/kg/day oral, Day 19, 4-6 h postdose
  Peak MABP: 131 ± 5 mm Hg
[1]; Amlodipine 3 mg/kg/day oral, Day 22, 4-6 h postdose
  Peak MABP: 114 mm Hg and 114 ± 5 mm Hg
[1]; amlodipine monotherapy (Group II), oral
  Threshold antihypertensive dose: 1 mg/kg/day

## CC(C)(CCCCOCCCCC(C)(C)C(=O)O)C(=O)O [CI-1027]
[2]; CI-1027 30 mg/kg/day oral, Day 0, 2-4 h postdose
  Peak MABP: 145 ± 4 mm Hg
[2]; CI-1027 30 mg/kg/day oral, Day 12, 2-4 h postdose, 30 mg/kg/day
  Peak MABP: 131 mm Hg and 131 ± 3 mm Hg
[2]; CI-1027 100 mg/kg/day oral, Day 0, 2-4 h postdose
  Peak MABP: 141 ± 4 mm Hg
[2]; CI-1027 monotherapy 30 and 100 mg/kg/day, 12 days
  Antihypertensive activity of monotherapy: modest antihypertensive activity
[1]; CI-1027 30 mg/kg/day oral, Day 0, 4-6 h postdose
  Peak MABP: 129 ± 4 mm Hg
[1]; CI-1027 30 mg/kg/day oral, Day 13, 4-6 h postdose, 30 mg/kg/day
  Peak MABP: 120 mm Hg and 120 ± 8 mm Hg
[1]; CI-1027 monotherapy 30 mg/kg/day, 13 days
  Effect of monotherapy on blood pressure: lowers blood pressure in the SHR

## CCOC(=O)[C@H](CCc1ccccc1)N[C@@H](C)C(=O)N1Cc2ccccc2C[C@H]1C(=O)O [Quinapril, quinapril]
[2]; Quinapril 0.3 mg/kg/day oral, Day 16, 2-4 h postdose
  Peak MABP: 122 ± 5 mm Hg
[2]; Quinapril 1 mg/kg/day oral, Day 19, 2-4 h postdose
  Peak MABP: 121 ± 4 mm Hg
[2]; Quinapril 3 mg/kg/day oral, Day 22, 2-4 h postdose
  Peak MABP: 117 mm Hg and 117 ± 4 mm Hg
[2]; Quinapril monotherapy, rising dose
  Antihypertensive response at 3 mg/kg/day greater than at 0.3 mg/kg/day: 5 mm Hg

From patent publication US20030225123A1, “Antihypertensive agents and use” (priority 2003, published 2003)
